Reference: patent publication US8614324B2, “Filamin A binding anti-inflammatory and analgesic” (priority 2008, dated 2013)

Molecular target: T1, mu opiate receptor (MOR) (Rattus norvegicus, UniProt P33535)
T1 construct: from tissue; host or cells: striatal membrane preparation (rat striatum)
Test: MOR agonist activity, [35S]GTPγS binding assay using striatal membranes
Format: biochemical
Set-up: MOR agonist activity, [35S]GTPγS binding to Gαo: reference not given here
Protocol: To assess the mu opiate receptor (MOR) agonist activity of positive compounds from the FLNA screening, compounds were tested in a [^35S]GTPγS binding assay using striatal membranes.
Striatal tissue was homogenized in 10 volumes of ice cold 25 mM HEPES buffer, pH 7.4, which contained 1 mM EGTA, 100 mM sucrose, 50 μg/ml leupeptin, 0.04 mM PMSF, 2 μg/ml soybean trypsin inhibitor and 0.2% 2-mercaptoethanol. The homogenates were centrifuged at 800×g for 5 minutes and the supernatants were centrifuged at 49,000×g for 20 minutes. The resulting pellets were suspended in 10 volume of reaction buffer, which contained 25 mM HEPES, pH 7.5, 100 mM NaCl, 50 μg/ml leupeptin, 2 μg/ml soybean trypsin inhibitor, 0.04 mM PMSF and 0.02% […].
The resultant striatal membrane preparation (200 μg) was admixed and maintained (incubated) at 30° C. for 5 minutes in reaction buffer as above that additionally contained 1 mM MgCl2 and 0.5 nM [^35S]GTPγS (0.1 μCi/assay, PerkinElmer Life and Analytical Sciences) in a total volume of 250 μl and continued for 5 minutes in the absence or presence of 0.1-10 μM of an assayed compound of interest. The reaction was terminated by dilution with 750 μl of ice-cold reaction buffer that contained 20 mM MgCl2 and 1 mM EGTA and immediate centrifugation at 16,000×g for 5 minutes.
The resulting pellet was solubilized by sonicating for 10 seconds in 0.5 ml of immunoprecipitation buffer containing 0.5% digitonin, 0.2% sodium cholate and 0.5% NP-40. Normal rabbit serum (1 μl) was added to 1 ml of lysate and incubated at 25° C. for 30 minutes. Nonspecific immune complexes were removed by incubation with 25 μl of protein A/G-conjugated agarose beads at 25° C. for 30 minutes followed by centrifugation at 5,000×g at 4° C. for 5 minutes. The supernatant was divided and separately incubated at 25° C. for 30 minutes with antibodies raised against Gαo proteins (1:1,000 dilutions).
The immunocomplexes so formed were collected by incubation at 25° C. for 30 minutes with 40 μl of agarose-conjugated protein A/G beads and centrifugation at 5,000×g at 4° C. for 5 minutes. The pellet was washed and suspended in buffer containing 50 mM Tris-HCl, pH 8.0, and 1% NP-40. The radioactivity in the suspension was determined by liquid scintillation spectrometry. […] DAMGO (H-Tyr-D-Ala-Gly-N-MePhe-Gly-OH; 1 or 10 μM) was used as a positive control.

[1] = 0.1 μM compound, striatal membranes
[2] = 1 μM compound + BFNA (1 μM β-funaltrexamine)
[3] = 1 μM compound, striatal membranes

T1 sequence (P33535 whole entry): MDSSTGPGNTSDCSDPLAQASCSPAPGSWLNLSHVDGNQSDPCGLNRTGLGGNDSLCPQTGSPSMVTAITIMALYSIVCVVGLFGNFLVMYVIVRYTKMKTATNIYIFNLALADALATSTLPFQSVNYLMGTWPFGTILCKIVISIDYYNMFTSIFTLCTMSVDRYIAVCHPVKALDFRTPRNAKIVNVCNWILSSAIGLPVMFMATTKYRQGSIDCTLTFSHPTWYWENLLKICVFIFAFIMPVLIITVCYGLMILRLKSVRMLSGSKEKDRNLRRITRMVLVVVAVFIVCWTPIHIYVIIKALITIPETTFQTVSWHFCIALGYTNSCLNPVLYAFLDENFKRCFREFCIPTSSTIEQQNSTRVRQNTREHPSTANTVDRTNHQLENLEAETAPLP

SMILES | MOR agonist activity, [35S]GTPγS binding to Gαo [1] [%] | MOR agonist activity, [35S]GTPγS binding to Gαo [2] [%] | MOR agonist activity, [35S]GTPγS binding to Gαo [3] [%]
O=C1CN(C2CCc3ccccc3C2)C2(CCN(S(=O)(=O)c3ccccc3)CC2)N1 (stereo not drawn) [C0136M(P5)] | 176.8 | 74.5 | 237.3
O=C1CN(Cc2ccccc2)C2(CCN(C3CCCCC3)CC2)N1 [C0137M(P7)] | 180.8 | 55.8 | 193.8
COc1ccc(S(=O)(=O)N2CCC3(CC2)NCCO3)cc1 [Compound C0026] | 207.2 | 21.2 | 288.4
COc1ccc(S(=O)(=O)N2CCOC23CCNCC3)cc1 [Compound C0027] | 233.2 | 72.2 | 313.9
O=[N+]([O-])c1ccc(S(=O)(=O)N2CCC3(CC2)NCCO3)cc1 [Compound C0040] | 145.8 | 90.4 | 308.3
O=[N+]([O-])c1ccc(S(=O)(=O)N2CCC3(CC2)NCCS3)cc1 [Compound C0044] | 173.7 | 59.1 | 280.1
CC(=O)c1ccc(S(=O)(=O)N2CCOC23CCNCC3)cc1 [Compound C0046] | 286.2 | 156.8 | 492.9
CC(=O)N1CCSC12CCN(S(=O)(=O)c1ccc([N+](=O)[O-])cc1)CC2 [Compound C0050] | 110.3 | 59.0 | 127.6
CC(=O)c1ccc(S(=O)(=O)N2CCC3(CC2)OCCN3S(C)(=O)=O)cc1 [Compound C0056] | 98.6 | 86.3 | 193.4
CC(=O)c1ccc(S(=O)(=O)N2CCC3(CC2)NCCS3)cc1 [Compound C0060] | 166.5 | 143.9 | 218.9
CC(=O)c1ccc(S(=O)(=O)N2CC(=O)NC23CCNCC3)cc1 [Compound C0086M] | 206.8 | 152.3 | 265.3
CC(=O)c1ccc(S(=O)(=O)N2CCC3(CC2)NC(=O)CO3)cc1 [Compound C0087M] | 262.8 | 142.5 | 329.6
COc1ccc(S(=O)(=O)N2CCOC23CCN(C)CC3)cc1 [Compound C0088M] | 276.3 | 177.1 | 355.3
CCN1CCC2(CC1)OCCN2S(=O)(=O)c1ccc(OC)cc1 [Compound C0089M] | 234.5 | 81.9 | 295.3
COc1ccc(S(=O)(=O)N2CCOC23CCN(CC2CC2)CC3)cc1 [Compound C0090M] | 237.0 | 41.0 | 341.0
C=CCN1CCC2(CC1)OCCN2S(=O)(=O)c1ccc(OC)cc1 [Compound C0091M] | 207.9 | 80.8 | 274.4
CC(=O)c1ccc(S(=O)(=O)N2CCOC23CCN(C)CC3)cc1 [Compound C0093M] | 140.0 | 44.0 | 211.8
